According to patent US5296481A, “Treatment process for promoting weight loss employing a substituted Δ 5” (Humanetics Corporation, priority 1992, dated 1994):

Experiments:
[1] = tested on: Mitochondrial G3P-DH (glycerol 3-phosphate dehydrogenase), rat liver; experiment: Mitochondrial G3P-DH activity in liver of steroid-fed rats (enzyme induction in rat liver by C19 steroids); type: in vivo, rat (male Sprague Dawley); details: 6 days, rat liver mitochondria
Excerpt: (§1) Administration of Hormone: Male Sprague Dawley rats weighing 125-150 gm were obtained from Sasco Inc. of Oregon, Wis. The rats were allowed free access to water and Purina Rat Chow pellets for the first day after arrival Administration of the steroids began on day two. The steroids were either administered orally (combined with the Purina Rat Chow) or injected intraperitoneal as set forth in Table 1 for 6 days.
(§2) Preparation of Liver Mitochondria and Cytosol. The treated rats were sacrificed by decapitation after 6 days of treatment. The livers were excised, placed in 10 ml of a buffer consisting of 250 mM mannitol, 70 mM sucrose, and 3 mM Hepes (hereinafter MSH buffer) at pH 7.4, weighed, removed from the buffer, minced with scissors, washed with MSH buffer, suspended in MSH buffer at a ratio of 1 gram minced liver to 5 ml MSH buffer, and homogenized with a Potter-Elvehjem rotary homogenizer.
The Mitochondria fraction was prepared by the method described in Johnson, D. and Lardy, H. A., Methods Enzymology, vol. 10, pp 94-96 (1967) which is hereby incorporated by reference. Briefly, liver homogenate was centrifuged in a Beckman Model J2-21 centrifuge, JA-20 rotor at 750 g for 10 minutes and the resulting supernatant solution centrifuged at 15,000 g for an additional 10 minutes. The resulting mitochondrial pellets were washed twice with MSH buffer, resuspended in 0.8 to 1 ml of a 35 wt % aqueous glycerol solution, and stored at -70° C.
(§3) Protein concentrations in the resultant preparations were determined by the Biuret method described in Layne E., Methods Enzymology, vol. 3, pp 450451 (1957) which is hereby incorporated by reference. Briefly, the protein concentrations were determined by treating a dilute protein solution with copper tartrate solution and measuring the optical density at 540 nm.
Enzyme Assays. Mitochondrial G3P-DH activity was measured by the method described in Wernette, M. E., Ochs, R. S., and Lardy, H. A., J. Biol. Chem., vol. 256, pp 12767-12771 (1981) which is a modified version of the method described in Gardner, R. S., Anal. Biochem., vol. 59, pp 272-276 (1974). Both references are hereby incorporated by reference. Briefly, aliquots of the previously prepared mitochondria containing 0.1 to 0.2 mg of protein were incubated in a test tube containing 50 mM sn-glycerol-3-P,50 mM potassium phosphate (pH 7.0), 1 mM KCN, and 0.2% p-iodonitrotetrazolium violet in a total volume of 0.4 ml for 30 min at 37° C. The incubating mitochondria were continuously agitated during the incubation period by a Dubnoff shaker agitated at 100 cycles/min. Incubation was ceased by the addition of 0.6 ml of 1M acetic acid to the test tube. The iodoformazan formed during the incubation period was extracted into 2 ml of ethyl acetate by adding the ethyl acetate to the test tube, mixing thoroughly, and then decanting the ethyl acetate containing the iodoformazan from the test tube. The optical densities of the iodoformazan containing ethyl acetate layers were read at 490 nm by means of an On Line Instrument Systems, Model 3820 Data System, Spectrophotometry, Cary--15, Version 4 08. An extinction coefficient value of 2.01×10^4 /(M cm) for the iodoformazan product in ethyl acetate was used to calculate enzyme activities.

[2] = tested on: Cytosolic malic enzyme, rat liver; experiment: Cytosolic malic enzyme activity in liver of steroid-fed rats (enzyme induction in rat liver by C19 steroids); type: in vivo, rat (male Sprague Dawley); details: 6 days, rat liver cytosol
Excerpt: as §1, §2
The Cytosolic fraction was obtained by recentrifuging the previously centrifuged supernatant solution at 100,000 g for 30 minutes in a Beckman Model L2 ultracentrifuge, type 40 rotor. The resultant supernatant solution was stored at -70° C.
as §3
Cytosolic malic enzyme activity was measured in accordance with the method described in Hsu, R. Y. and Lardy, H. A., Methods Enzymol., vol. 8, pp 230-235 (1967). Briefly, aliquots of the previously prepared cytosol containing 0.1 to 0.5 mg of protein were incubated in a test tube containing 0.8 mM malate, 67 mM triethanolamine buffer (pH 7.4), 4 mM MnCl2, and 0.2 mM NADP in a total volume of 1 ml for 3 min at 26° C. Activity of malic enzyme was calculated from the rate of change in optical density measured at 340 nm from 0.5 to 2 minutes with an On Line Instrument Systems, Model 3820 Data System, Spectrophotometry, Cary--15, Version 4.08.

With CC(=O)O[C@H]1CC[C@@]2(C)C(=CC(=O)[C@H]3[C@@H]4CC[C@H](OC(C)=O)[C@@]4(C)CC[C@@H]32)C1 [Δ5-androstene 3β,17β-diol-7-one diacetate] the “G3P-DH (% control)” value ([1]; 0.01 wt % steroid in diet) was 173 % control, the “G3P-DH (% control)” value ([1]; 0.13 wt % steroid in diet) was 232 % control and the “Malic Enzyme (% control)” value ([2]; 0.01 wt % steroid in diet) was 119 % control. For the same compound, the “Malic Enzyme (% control)” value ([2]; 0.13 wt % steroid in diet) was 452 % control.
For CC(=O)O[C@H]1CC[C@@]2(C)C(=CC(=O)[C@@H]3[C@@H]2CC[C@]2(C)C(=O)CC[C@@H]32)C1 [Δ5-Androstene-3β-ol-7,17-one acetate, Δ5-Androstene 3β-acetoxy-7,17-dione], the “G3P-DH (% control)” value ([1]; 0.115 wt % steroid in diet) was 261 % control and the “Malic Enzyme (% control)” value ([2]; 0.115 wt % steroid in diet) was 447 % control.
C[C@]12CC[C@H]3[C@@H]([C@H](O)C=C4C[C@@H](O)CC[C@@]43CO)[C@@H]1CCC2=O [Δ5 Androstene 3β,7α,19-ol-17-one, reference compound] was tested, and the “G3P-DH (% control)” value ([1]; 0.1 wt % steroid in diet) was 117 % control and the “Malic Enzyme (% control)” value ([2]; 0.1 wt % steroid in diet) was 118 % control.
C[C@]12CC[C@H]3[C@@H](C(=O)C=C4C[C@@H](O)CC[C@@]43C)[C@@H]1CC[C@@H]2O [Δ5-Androstene 3β,17β-diol-7-one, Δ5-Androstene-3β,17β-diol-7-one] was tested, and the “G3P-DH (% control)” value ([1]; 0.01 wt % steroid in diet) was 130 % control, the “G3P-DH (% control)” value ([1]; 0.05 wt % steroid in diet) was 360 % control and the “G3P-DH (% control)” value ([1]; 0.1 wt % steroid in diet) was 286 % control. For the same compound, the “Malic Enzyme (% control)” value ([2]; 0.01 wt % steroid in diet) was 175 % control and the “Malic Enzyme (% control)” value ([2]; 0.05 wt % steroid in diet) was 305 % control.
C[C@]12CC[C@H](O)CC1=CC(=O)[C@@H]1[C@@H]2CC[C@]2(C)C(=O)CC[C@@H]12 [7-keto DHEA, Δ5-Androstene-3β-ol-7,17-dione] was tested, and the “G3P-DH (% control)” value ([1]; 0.01 wt % steroid in diet) was 183 % control, the “G3P-DH (% control)” value ([1]; 0.05 wt % steroid in diet) was 439 % control and the “G3P-DH (% control)” value ([1]; 0.0575 wt % steroid in diet) was 224 % control. The “G3P-DH (% control)” value ([1]; 0.1 wt % steroid in diet) was 220 % control, the “Malic Enzyme (% control)” value ([2]; 0.01 wt % steroid in diet) was 229 % control and the “Malic Enzyme (% control)” value ([2]; 0.05 wt % steroid in diet) was 449 % control. For the same compound, the “Malic Enzyme (% control)” value ([2]; 0.0575 wt % steroid in diet) was 341 % control and the “Malic Enzyme (% control)” value ([2]; 0.1 wt % steroid in diet) was 350 % control.
For CC1C=C2C[C@@H](O)CC[C@]2(C)[C@H]2CC[C@]3(C)C(=O)CC[C@H]3[C@H]12 (stereo partly drawn) [Δ5-Androstene-3β-ol-7-methyl-17-one, reference compound], the “G3P-DH (% control)” value ([1]; 0.1 wt % steroid in diet) was 91 % control and the “Malic Enzyme (% control)” value ([2]; 0.1 wt % steroid in diet) was 121 % control.
For C[C@]12CC[C@H](O)CC1=C[C@@H](O)[C@@H]1[C@@H]2CC[C@]2(C)C(=O)CC[C@@H]12 [Δ5 Androstene 3β,7α-ol-17-one, Δ5-Androstene 3β,7α-diol-17-one], the “G3P-DH (% control)” value ([1]; 0.033 wt % steroid in diet) was 308 % control, the “G3P-DH (% control)” value ([1]; 0.05 wt % steroid in diet) was 292 % control and the “Malic Enzyme (% control)” value ([2]; 0.033 wt % steroid in diet) was 374 % control. For the same compound, the “Malic Enzyme (% control)” value ([2]; 0.05 wt % steroid in diet) was 423 % control.
C[C@]12CC[C@H]3[C@@H]([C@H](O)C=C4C[C@@H](O)CC[C@@]43C)[C@@H]1CC[C@@H]2O [Δ5-Androstene 3β,7α,17β-triol] was tested, and the “G3P-DH (% control)” value ([1]; 0.01 wt % steroid in diet) was 99 % control, the “G3P-DH (% control)” value ([1]; 0.1 wt % steroid in diet) was 227 % control and the “Malic Enzyme (% control)” value ([2]; 0.01 wt % steroid in diet) was 108 % control. For the same compound, the “Malic Enzyme (% control)” value ([2]; 0.1 wt % steroid in diet) was 611 % control.
C[C@]12CC[C@H](O)CC1=CC[C@@H]1[C@@H]2CC[C@]2(C)C(=O)CC[C@@H]12 [DHEA, Δ5-androstene 3β-hydroxy, 17-one, reference compound] was tested, and the “G3P-DH (% control)” value ([1]; 0.01 wt % steroid in diet) was 139 % control, the “G3P-DH (% control)” value ([1]; 0.05 wt % steroid in diet) was 251 % control and the “G3P-DH (% control)” value ([1]; 0.1 wt % steroid in diet) was 265 % control. For the same compound, the “G3P-DH (% control)” value ([1]; 0.2 wt % steroid in diet) was 380 % control, the “Malic Enzyme (% control)” value ([2]; 0.01 wt % steroid in diet) was 64 % control and the “Malic Enzyme (% control)” value ([2]; 0.05 wt % steroid in diet) was 337 % control. The “Malic Enzyme (% control)” value ([2]; 0.1 wt % steroid in diet) was 394 % control and the “Malic Enzyme (% control)” value ([2]; 0.2 wt % steroid in diet) was 512 % control.
